*1 amine or outer side, *2 acyl side, *3 side chain or, on linkers, in order; H or OH if unused. Where a SMILES comes first, the peptide text is derived from it. Side-chain parts run from the residue outwards. [ ]: non-standard residue; d: D form. The star is where a group is joined. C20 diacid = O=C(O)CCCCCCCCCCCCCCCCCCC(=O)*; C18 diacid = O=C(O)CCCCCCCCCCCCCCCCC(=O)*; γGlu = O=C(O)[C@H](CCC(=O)[*:2])N[*:1]; AEEA = NCCOCCOCC(=O)O; Aib = CC(C)(N)C(=O)O
Columns and labels:
human GIP receptor = target: T1, human GIP receptor (Homo sapiens, UniProt P48546); assay: cAMP HTRF assay in human adipocytes endogenously expressing the human GIP receptor; assay type: cell-based; details: for Emax: read-out: hGIPR Emax
T1 construct: human adipocytes endogenously expressing the human GIP receptor; host or cells: human preadipocytes (Lonza) differentiated to adipocytes
T1 sequence (P48546 22-466): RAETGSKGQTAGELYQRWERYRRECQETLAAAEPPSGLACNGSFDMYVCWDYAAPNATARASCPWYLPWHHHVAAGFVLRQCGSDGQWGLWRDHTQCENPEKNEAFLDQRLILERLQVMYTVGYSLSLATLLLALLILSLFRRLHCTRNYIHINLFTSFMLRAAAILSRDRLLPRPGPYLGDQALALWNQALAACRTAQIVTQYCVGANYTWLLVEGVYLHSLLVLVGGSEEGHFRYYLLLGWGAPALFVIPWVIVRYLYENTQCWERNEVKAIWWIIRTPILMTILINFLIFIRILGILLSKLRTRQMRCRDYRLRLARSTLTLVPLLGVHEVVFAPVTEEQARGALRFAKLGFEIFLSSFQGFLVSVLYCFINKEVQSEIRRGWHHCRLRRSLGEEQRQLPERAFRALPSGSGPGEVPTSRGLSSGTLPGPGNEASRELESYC
Description: For this, one vial of human preadipocytes (˜10^6 cells; Lonza) was thawed in a T-75 cell culture dish.
After 3 days, the cells were washed with PBS and 1.5 ml Trypsin, incubated for 4 min, then resuspended in medium, centrifugated for 10 min @ 300 rcf RT, resuspended again and distributed to four T-75 cell culture dishes.
After 5 days, the cells were washed with PBS and 1.5 ml Trypsin, incubated for 4 min, then resuspended in medium, centrifugated for 10 min @ 300 rcf RT, resuspended again and sawn in T-75 dishes (2.5×10^6 cells per dish) in 15 ml Differentiation medium each.
After 6 days of differentiation, 5000 cells per well were dispensed on a 96-well plate (#CLS3694 from Corning®, Sigma-Aldrich). For measurement of cAMP generation, 25 μL of test compound was added to each well of the 96-well plate, followed by incubation for 30 min at room temperature.
The cAMP generated following test compound stimulation was determined using a kit from Cisbio Corp. based on HTRF (Homogenous Time Resolved Fluorescence). The cAMP assay was performed according to manufacturer's instructions (Cisbio).
The cAMP content of cells was determined using a kit from Cisbio Corp. based on HTRF (Homogenous Time Resolved Fluorescence).

[1] = target: T2, human GIP receptor (hGIPR) (Homo sapiens, UniProt P48546); assay: Binding assay, displacement of [125I]GIP from HEK-293 membranes expressing GIPR; details: [125I]GIP displacement
T2 sequence (P48546 22-466): T1 sequence (P48546 22-466)
Description: HEK-293 cells recombinantly over-expressing GIPR or GLP-1R were grown to 50% confluency, washed with warm 1×PBS (Gibco) and detached in HEPES/EDTA-buffer (100 mM HEPES pH 7.5, 5 mM EDTA). Cells were harvested by centrifugation at 4° C. and 3000×g and the pellets were stored at −80° C. until further processing.
After thawing on ice, pellets were resuspended in HEPES/EDTA-buffer and homogenized on ice for 1 min using Ultra-Turray T25. After subsequent sonification the cell debris was removed by centrifugation at 1000×g and 4° C. Supernatants were then ultra-centrifuged at 100000×g and 4° C. under vacuum for 30 min. Pellets were resuspended in HEPES/EDTA/NaCl-buffer (20 mM HEPES, 1 mM EDTA, 150 mM NaCl; add 1 Complete Mini Protease inhibitor cocktail to 10 ml buffer) and protein content was determined via BCA-Protein assay.

[2] = Pharmacokinetic evaluation in rats; assay type: in vivo; details: male, SD, rat, plasma
Description: Compounds were administered in a suitable buffer system, e.g. PBS buffer solution at pH7.4 or DPBS solution at concentrations of 0.05, 0.1, 0.5 or 1 mg/ml depending on dose, species and administration volume.
Male SD rats were dosed 0.25 mg/kg, 0.5 mg/kg or 1 mg/kg intravenously (i.v.) or subcutaneously (s.c.). Blood samples were collected after 0.08, 0.25, 0.5, 1, 2, 4, 8, 24, 32, and 48 h post i.v. application and 0.25, 0.5, 1, 2, 4, 8, 24, 32, and 48 h post s.c. application, respectively. Plasma samples were analyzed after protein precipitation via liquid chromatography mass spectrometry (LC/MS). PK parameters and half-life were calculated using Phoenix-WinNonlin 8.1 using a non-compartmental model and linear trapezoidal interpolation calculation.
Pharmacokinetic profiles were determined as described in Methods.

[3] = ThT assay for the assessment of physical stability; assay type: physicochemical; details: ThT buffer system A: 100 mM phosphate buffer pH 7.4; 3 mg/ml, 37° C.
Text: Low physical stability of a peptide solution may lead to amyloid fibril formation, which is observed as well-ordered, thread-like macromolecular structures in the sample, which eventually may lead to gel formation. Thioflavin T (ThT) is widely used to visualize and quantify the presence of misfolded protein aggregates [Biancalana et al., Biochim. Biophys. Acta 2010, 1804(7), 1405]. […] Enzymol. 1999, 309, 274]. The time course for fibril formation often follows the characteristic shape of a sigmoidal curve and can be separated into three regions: a lag phase, a fast growth phase, and a plateau phase.
The typical fibril formation process starts with the lag phase in which the amount of partially folded peptide turned into fibrils is not significant enough to be detected. The lag-time corresponds to the time the critical mass of the nucleus is built. Afterwards, a drastic elongation phase follows, and fibril concentration increases rapidly.
Investigations were carried out to determine fibrillation tendencies under stress conditions by shaking at 37° C. within Fluoroskan Ascent FL or Fluoroskan Ascent.
For the tests in Fluoroskan Ascent (FL), 200 μl sample were placed into a 96-well mictrotiter plate PS, flat bottom, Greiner Fluotrac No. 655076. Plates were sealed with Scotch Tape (Qiagen). Samples were stressed by continuous cycles of 10 sec shaking at 960 rpm and 50 sec rest period at 37° C. The kinetic was monitored by measuring fluorescence intensity every 20 min.
Peptides were diluted in a buffer system to a final concentration of 3 mg/ml. 20 μl of a 10.1 mM ThT solution in H2O were added to 2 ml of peptide solution to receive a final concentration of 100 μM ThT. For each sample eight replicates were tested.
ThT buffer system A) 100 mM phosphate buffer pH 7.4
ThT buffer system B) 100 mM phosphate buffer pH 7.4, 2.7 mg/ml m-cresol
Lag time in hours (h) in Thioflavin T (ThT) assay of peptide samples was determined in ThT buffer system A as described in Methods.

SMILES	Emax (human GIP receptor) [%]	IC50 [1] [pM]	EC50 (human GIP receptor; read-out: hGIPR EC50) [pM]	AUC(0-t) ([2]; iv, 0.25 mg/kg i.v.) [ng·h/mL]	Cmax ([2]; iv, 0.25 mg/kg i.v.) [ng/mL]	half-life ([2]; iv, 0.25 mg/kg i.v.) [h]	clearance ([2]; iv, 0.25 mg/kg i.v., read-out: CI (converted)) [mL/h/kg]	AUC(0-t) ([2]; sc, 0.5 mg/kg s.c.) [ng·h/mL]	Cmax ([2]; sc, 0.5 mg/kg s.c.) [ng/mL]	bioavailability ([2]; sc, 0.5 mg/kg s.c.) [%]	half-life ([2]; sc, 0.5 mg/kg s.c.) [h]	Increase in FI [3]	Lag time before increase [3] [h]
CC[C@H](C)[C@H](NC(=O)[C@H](Cc1ccccc1)NC(=O)[C@H](CCC(=O)O)NC(=O)[C@H](CCC(=O)O)NC(=O)[C@H](CCC(N)=O)NC(=O)[C@H](Cc1c[nH]cn1)NC(=O)[C@@H](NC(=O)[C@H](CCCNC(=N)N)NC(=O)[C@H](CC(=O)O)NC(=O)[C@H](CCCCNC(=O)COCCOCCNC(=O)COCCOCCNC(=O)CC[C@H](NC(=O)CCCCCCCCCCCCCCCCCCC(=O)O)C(=O)O)NC(=O)C(C)(C)NC(=O)[C@@H](NC(=O)[C@H](CO)NC(=O)[C@H](CC(C)C)NC(=O)[C@H](CC(=O)O)NC(=O)[C@H](CO)NC(=O)[C@@H](NC(=O)[C@H](Cc1ccccc1)NC(=O)[C@@H](NC(=O)CNC(=O)[C@H](CCC(=O)O)NC(=O)C(C)(C)NC(=O)[C@@H](N)Cc1ccc(O)cc1)[C@@H](C)O)[C@@H](C)CC)[C@@H](C)CC)[C@@H](C)CC)C(=O)N[C@@H](CCC(=O)O)C(=O)N[C@@H](Cc1c[nH]c2ccccc12)C(=O)N[C@@H](CC(C)C)C(=O)N[C@@H](CC(C)C)C(=O)N[C@@H](C)C(=O)N[C@@H](CCC(N)=O)C(=O)NCC(=O)N1CCC[C@H]1C(=O)N[C@@H](CO)C(=O)N[C@@H](CO)C(=O)NCC(=O)N[C@@H](C)C(=O)N1CCC[C@H]1C(=O)N1CCC[C@H]1C(=O)N1CCC[C@H]1C(=O)N[C@@H](CO)C(N)=O [SEQ ID NO: 10, H2N-Y-Aib-E-G-T-F-I-S-D-I-S-I-Aib-K[{AEEA}2-gGlu-C20OH]-DRIHQEEFIEWILAQGPSSGAPPPS-NH2] (H-Y[Aib]EGTFISDLSI[Aib]K([AEEA-AEEA-γGlu-C20 diacid])DRIHQEEFIEWLLAQGPSSGAPPPS-NH2)	127	300											
CC[C@H](C)[C@H](NC(=O)[C@H](CCCNC(=N)N)NC(=O)[C@H](CC(=O)O)NC(=O)[C@H](CCCCNC(=O)COCCOCCNC(=O)COCCOCCNC(=O)CC[C@H](NC(=O)CCCCCCCCCCCCCCCCCCC(=O)O)C(=O)O)NC(=O)C(C)(C)NC(=O)[C@@H](NC(=O)[C@H](CO)NC(=O)[C@H](CC(C)C)NC(=O)[C@H](CC(=O)O)NC(=O)[C@H](CO)NC(=O)[C@@H](NC(=O)[C@H](Cc1ccccc1)NC(=O)[C@@H](NC(=O)CNC(=O)[C@H](CCC(=O)O)NC(=O)C(C)(C)NC(=O)[C@@H](N)Cc1ccc(O)cc1)[C@@H](C)O)[C@@H](C)CC)[C@@H](C)CC)C(=O)N[C@@H](Cc1c[nH]cn1)C(=O)N[C@@H](CCC(N)=O)C(=O)NC(C)(C)C(=O)N[C@@H](CCC(=O)O)C(=O)N[C@@H](Cc1ccccc1)C(=O)N[C@H](C(=O)N[C@@H](CCC(=O)O)C(=O)N[C@@H](Cc1c[nH]c2ccccc12)C(=O)N[C@@H](CC(C)C)C(=O)N[C@@H](CC(C)C)C(=O)N[C@@H](C)C(=O)N[C@@H](CCC(N)=O)C(=O)NCC(=O)N1CCC[C@H]1C(=O)N[C@@H](CO)C(=O)N[C@@H](CO)C(=O)NCC(=O)N[C@@H](C)C(=O)N1CCC[C@H]1C(=O)N1CCC[C@H]1C(=O)N1CCC[C@H]1C(=O)N[C@@H](CO)C(N)=O)[C@@H](C)CC [SEQ ID NO: 7, H2N-Y-Aib-E-G-T-F-I-S-D-I-S-I-Aib-K[{AEEA}2-gGlu-C20OH]-D-R-I-H-Q-Aib-E-F-I-E-W-I-L-A-Q-G-P-S-S-G-A-P-P-P-S-NH2] (H-Y[Aib]EGTFISDLSI[Aib]K([AEEA-AEEA-γGlu-C20 diacid])DRIHQ[Aib]EFIEWLLAQGPSSGAPPPS-NH2)	121	200	300										
CC[C@H](C)[C@H](NC(=O)[C@H](Cc1ccccc1)NC(=O)[C@H](CCC(=O)O)NC(=O)[C@H](CCC(=O)O)NC(=O)[C@H](CCC(N)=O)NC(=O)[C@H](Cc1c[nH]cn1)NC(=O)[C@@H](NC(=O)[C@H](CCCNC(=N)N)NC(=O)[C@H](CC(=O)O)NC(=O)[C@H](CCCCNC(=O)COCCOCCNC(=O)COCCOCCNC(=O)CC[C@H](NC(=O)CCCCCCCCCCCCCCCCC(=O)O)C(=O)O)NC(=O)C(C)(C)NC(=O)[C@@H](NC(=O)[C@H](CO)NC(=O)[C@H](CC(C)C)NC(=O)[C@H](CC(=O)O)NC(=O)[C@H](CO)NC(=O)[C@@H](NC(=O)[C@H](Cc1ccccc1)NC(=O)[C@@H](NC(=O)CNC(=O)[C@H](CCC(=O)O)NC(=O)C(C)(C)NC(=O)[C@@H](N)Cc1ccc(O)cc1)[C@@H](C)O)[C@@H](C)CC)[C@@H](C)CC)[C@@H](C)CC)C(=O)N[C@@H](CCC(=O)O)C(=O)N[C@@H](Cc1c[nH]c2ccccc12)C(=O)N[C@@H](CC(C)C)C(=O)N[C@@H](CC(C)C)C(=O)N[C@@H](C)C(=O)N[C@@H](CCC(N)=O)C(=O)NCC(=O)N1CCC[C@H]1C(=O)N[C@@H](CO)C(=O)N[C@@H](CO)C(=O)NCC(=O)N[C@@H](C)C(=O)N1CCC[C@H]1C(=O)N1CCC[C@H]1C(=O)N1CCC[C@H]1C(=O)N[C@@H](CO)C(N)=O [SEQ ID NO: 9, H2N-Y-Aib-E-G-T-F-I-S-D-I-S-I-Aib-K[{AEEA}2-gGlu-C18OH]-DRIHQEEFIEWILAQGPSSGAPPPS-NH2] (H-Y[Aib]EGTFISDLSI[Aib]K([AEEA-AEEA-γGlu-C18 diacid])DRIHQEEFIEWLLAQGPSSGAPPPS-NH2)	125			54500	5600	14.8	4.19	72900	2490	73	16.9	no	>45
